Reference: US20260193244A1 (Protego Biopharma, Inc., priority 2022, published 2026)
Structures can show the parent of a compound that is named as a salt.

System: IRE1-XBP1s (HEK293 T-REx cells stably expressing the XBP1-RLuc splicing reporter)
Assay: IRE1-XBP1s activation Assay (XBP1-RLuc splicing reporter, luminescence relative to thapsigargin, with or without IRE1 inhibitor 4μ8C)
Assay type: cell-based
Settings: 18 h, compound 10 μM, luminescence as percentage signal relative to thapsigargin (Tg) (500 nM, 18 h)
Experimental: IRE1-XBP1s activation Assay: HEK293 T-REx cells stably expressing the XBP1-RLuc splicing reporter were treated with an IRE1-XBP1s activator provided herein (10 μM) in the presence or absence of the IRE1 active site inhibitor 4μ8C (32 μM) for 18 h. Luminescence was shown as the percentage signal relative to thapsigargin (Tg) (500 nM, 18 h).

## O=C(CCOc1ccccc1)Nc1cnn(CC(=O)Nc2ccc(C3CCCCC3)cc2)c1 [Compound 31]
  activation at 10 µM: < 30%

## Cc1ccc(Oc2ccc(N(C)C(=O)Cn3cc(NC(=O)CCOc4cccc(C)c4)cn3)cc2)cc1 [Compound 26]
  activation at 10 µM: < 30%

## O=C(CCOc1ccccc1)Nc1cnn(CC(=O)N2CCCN(Cc3ccncc3)CC2)c1 [Compound 52, N-(1-(2-oxo-2-(4-(pyridin-4-ylmethyl)-1,4-diazepan-1-yl)ethyl)-1H-pyrazol-4-yl)-3-phenoxypropanamide]
  activation at 10 µM: < 30%

## Cc1ccc(OCCN(C)C(=O)Cn2cc(NC(=O)c3ccc(Oc4ccccc4)cc3)cn2)cc1 [Compound 3]
  activation at 10 µM: < 30%

## Cc1ccc(Oc2ccc(N(C)C(=O)Cn3cc(NC(=O)CCOc4ccccc4)cn3)cc2)cc1 [Compound 118]
  activation at 10 µM: < 30%

## COc1ncc(Cl)cc1NCCC(=O)Nc1cnn(CC(=O)N2CCC[C@@H](Oc3ccc(C)cc3)C2)c1 [Compound 158]
  activation at 10 µM: < 30%

## Cc1ccc(OC2CCCC23CN(C(=O)Cn2cc(NC(=O)C4CNc5ccccc5O4)cn2)C3)cc1 (stereo not drawn) [Compound 198, N-(1-(2-oxo-2-(5-(p-tolyloxy)-2-azaspiro[3.4]octan-2-yl)ethyl)-1H-pyrazol-4-yl)-3,4-dihydro-2H-benzo[b][1, 4]oxazine-2-carboxamide]
  activation at 10 µM: < 30%

## Cc1ccc(C(=O)c2ccc(N(C)C(=O)Cn3cc(NC(=O)CCOc4ccccc4)cn3)cn2)cc1 [Compound 115]
  activation at 10 µM: < 30%

## Cc1cccc(OCCC(=O)Nc2cnn(CC(=O)N(C)c3ccccc3Oc3ccccc3)c2)c1 [Compound 43]
  activation at 10 µM: < 30%

## Cc1ccc(OCCN(C)C(=O)Cn2cc(NC(=O)[C@@H]3COc4ccccc4O3)cn2)cc1 [Compound 156]
  activation at 10 µM: < 30%

## Cc1ccccc1OCCC(=O)Nc1cnn(CC(=O)N2CCCCC(Oc3ccccc3)C2)c1 (stereo not drawn) [Compound 49]
  activation at 10 µM: < 30%

## CC1(Oc2ccc(Br)cc2)CCCN(C(=O)Cn2cc(NC(=O)CCOc3ccccc3F)cn2)C1 (stereo not drawn) [Compound 78]
  activation at 10 µM: < 30%

## Cc1ccc(O[C@H]2CCCN(C(=O)Cn3cc(NC(=O)CCOc4ccccc4F)cn3)C2)cc1 [Compound 71]
  activation at 10 µM: ≥ 50%

## CN(C(=O)Cn1cc(NC(=O)CCOc2ccccc2)cn1)c1ccc(Oc2ccc(C(F)(F)F)cc2)c(F)c1 [Compound 54]
  activation at 10 µM: < 30%

## Cc1ccc(O[C@H]2CCCN(C(=O)Cn3cc(NC(=O)C4CNc5ccccc5O4)cn3)C2)cc1 (stereo partly drawn) [Compound 120]
  activation at 10 µM: < 30%

## CC(C)c1cncc(F)c1OCCC(=O)Nc1cnn(CC(=O)N2CCC[C@H](Oc3ccc(OC(F)(F)F)cn3)C2)c1 [Compound 160]
  activation at 10 µM: 30 to 50%

## Cc1ccc(OC2CCC23CN(C(=O)Cn2cc(NC(=O)C4CNc5ccccc5O4)cn2)C3)cc1 (stereo not drawn) [Compound 193]
  activation at 10 µM: < 30%

## Cc1ccc(O[C@H]2CCCN(C(=O)Cn3cc(NC(=O)CCOc4ccc(F)cc4C)cn3)C2)cc1 [Compound 94]
  activation at 10 µM: 30 to 50%

## Cc1ccc(OCCN(C)C(=O)Cn2cc(NC(=O)C3CC(Oc4cccc(C)n4)C3)cn2)cc1 (stereo not drawn) [Compound 142]
  activation at 10 µM: < 30%

## Cc1ccc(OCCN(C)C(=O)Cn2cc(N(C)C(=O)[C@@H]3CCCC[C@@H]3c3ccccc3)cn2)cc1 [Compound 19]
  activation at 10 µM: < 30%

## Cc1ccc(OC2CCCN(C(=O)Cn3cc(NC(=O)CCNc4ccnc(F)n4)cn3)CC2)cc1 (stereo not drawn) [Compound 172]
  activation at 10 µM: < 30%

## Cc1ccc(OCCN(C)C(=O)Cn2cc(NC(=O)C34CC(Nc5ncc(F)cn5)(C3)C4)cn2)cc1 [Compound 169, 3-[(5-fluoropyrimidin-2-yl)amino]-N-[1-[2-[methyl-[2-(4-methylphenoxy)ethyl]amino]-2-oxo-ethyl]pyrazol-4-yl]bicyclo[1.1.1]pentane-1-carboxamide]
  activation at 10 µM: < 30%

## Cc1ccc(OC2CCCN(C(=O)Cn3cc(NC(=O)CCOc4cncc(C(F)(F)F)c4)cn3)C2)cc1 (stereo not drawn) [Compound 89]
  activation at 10 µM: < 30%

## Cc1ccc(O[C@H]2CCCN(C(=O)Cn3cc(NC(=O)COc4ccccn4)cn3)C2)cc1 [Compound 150]
  activation at 10 µM: < 30%

## Cc1ccc(OCCN(C)C(=O)Cn2cc(NC(=O)OC3CCCNC3)cn2)cc1 (stereo not drawn) [Compound 206]
  activation at 10 µM: < 30%

## Cc1ccc(OC2CCC23CN(C(=O)Cn2cc(NC(=O)C4COc5ccccc5O4)cn2)C3)cc1 (stereo not drawn) [Compound 197]
  activation at 10 µM: < 30%

## Cc1ccc(OC2CCCC23CN(C(=O)Cn2cc(NC(=O)C4COc5ccccc5O4)cn2)C3)cc1 (stereo not drawn) [Compound 199]
  activation at 10 µM: < 30%

## Cc1ccc(OCCN(C)C(=O)Cn2cc(NC(=O)[C@H]3C[C@H](Oc4c(F)cncc4C(C)C)C3)cn2)cc1 [Compound 162]
  activation at 10 µM: < 30%

## Cc1ccc(OCCN(C)C(=O)Cn2cc(NC(=O)C3CCCC3Nc3ccnc(F)n3)cn2)cc1 (stereo not drawn) [Compound 166]
  activation at 10 µM: < 30%

## Cc1ccc(OCCC(=O)Nc2cnn(CC(=O)N3CCCC(Oc4ccc(C)cc4)C3)c2)cc1 (stereo not drawn) [Compound 37]
  activation at 10 µM: 30 to 50%

## Cc1ccc(OCCN(C)C(=O)Cn2cc(NC(=O)OC3CCCN(c4nccc(F)n4)C3)cn2)cc1 (stereo not drawn) [Compound 131, 1-(4-fluoropyrimidin-2-yl)piperidin-3-yl (1-(2-(methyl (2-(p-tolyloxy)ethyl)-amino)-2-oxoethyl)-1H-pyrazol-4-yl)carbamate]
  activation at 10 µM: < 30%

## Cc1ccc(O[C@H]2CCCN(C(=O)Cn3cc(NC(=O)C4CC(Oc5cccc(C)n5)C4)cn3)C2)cc1 (stereo partly drawn) [Compound 151]
  activation at 10 µM: < 30%

## COc1ccc(OCCC(=O)Nc2cnn(CC(=O)N3CCCCC(Oc4ccccc4)C3)c2)cc1 (stereo not drawn) [Compound 47]
  activation at 10 µM: < 30%

## Cc1ccc(OCCN(C)C(=O)Cn2cc(NC(=O)C3CC(Oc4ccncc4)C3)cn2)cc1 (stereo not drawn) [Compound 139, N-(1-(2-(methyl (2-(p-tolyloxy)ethyl)amino)-2-oxoethyl)-1H-pyrazol-4-yl)-3-(pyridin-4-yloxy)cyclobutane-1-carboxamide]
  activation at 10 µM: ≥ 50%

## Cc1ccc(OC2CCCN(C(=O)Cn3cc(NC(=O)CCOc4ccc(Cl)cc4)cn3)C2)cc1 (stereo not drawn) [Compound 38]
  activation at 10 µM: 30 to 50%

## Cc1ccc(OCCN(C)C(=O)Cn2cc(N(C)C(=O)C3=C(c4ccccc4)CCCC3)cn2)cc1 [Compound 205]
  activation at 10 µM: < 30%

## Cc1ccc(OC2CCCC23CN(C(=O)Cn2cc(NC(=O)CCOc4cccc(C)n4)cn2)C3)cc1 (stereo not drawn) [Compound 196]
  activation at 10 µM: ≥ 50%

## O=C(CCNc1ccnc(F)n1)Nc1cnn(CC(=O)N2CCC[C@H](Oc3ccc(C(F)F)cc3)C2)c1 [Compound 179]
  activation at 10 µM: ≥ 50%

## CC(C)c1cncc(F)c1OCCC(=O)Nc1cnn(CC(=O)N2CCC[C@H](Oc3ccc(C(F)(F)F)cn3)C2)c1 [Compound 161]
  activation at 10 µM: ≥ 50%

## Cc1ccc(OCCN(C)C(=O)Cn2cc(NC(=O)C3CCC(Oc4cccnc4)CC3)cn2)cc1 (stereo not drawn) [Compound 103]
  activation at 10 µM: < 30%

## Cc1ccc(Oc2ccccc2N(C)C(=O)Cn2cc(NC(=O)CCOc3ccccc3)cn2)cc1 [Compound 57]
  activation at 10 µM: < 30%

## Cc1ccc(OCCN(C)C(=O)Cn2cc(NC(=O)C3CNc4ncccc4O3)cn2)cc1 (stereo not drawn) [Compound 90, N-(1-(2-(methyl(2-(p-tolyloxy)ethyl)amino)-2-oxoethyl)-1H-pyrazol-4-yl)-3,4-dihydro-2H-pyrido[3,2-b][1,4]oxazine-2-carboxamide hydrochloride]
  activation at 10 µM: 30 to 50%

## Cc1ccc(OCCN(C)C(=O)Cn2cc(NC(=O)COC3CCCN(c4nccc(F)n4)C3)cn2)cc1 (stereo not drawn) [Compound 132]
  activation at 10 µM: < 30%

## Cc1ccc(OCCN(C)C(=O)Cn2cc(NC(=O)CC3CCc4cc(F)ccc4O3)cn2)cc1 (stereo not drawn) [Compound 110]
  activation at 10 µM: < 30%

## Cc1ccc(OCCN(C)C(=O)Cn2cc(NC(=O)[C@H]3CCc4ccccc4O3)cn2)cc1 [Compound 202]
  activation at 10 µM: 30 to 50%

## Cc1ccc(OCCN(C)C(=O)Cn2cc(NC(=O)C3COc4ccccc43)cn2)cc1 (stereo not drawn) [Compound 67]
  activation at 10 µM: < 30%

## Cc1ccc(OCCN(C)C(=O)Cn2cc(NC(=O)C3COc4c(F)cccc4O3)cn2)cc1 (stereo not drawn) [Compound 129]
  activation at 10 µM: ≥ 50%

## Cc1ccc(O[C@H]2CCCN(C(=O)Cn3cc(NC(=O)CCOc4ncncc4N)cn3)C2)cc1 [Compound 164, (S)-3-((5-aminopyrimidin-4-yl)oxy)-N-(1-(2-oxo-2-(3-(p-tolyloxy)piperidin-1-yl)ethyl)-1H-pyrazol-4-yl)propanamide]
  activation at 10 µM: ≥ 50%

## Cc1ccc(O[C@@H]2CCCN(C(=O)Cn3cc(NC(=O)CCOc4ccccc4F)cn3)C2)cc1 [Compound 72]
  activation at 10 µM: ≥ 50%

## Cc1ccc(OCCN(C)C(=O)Cn2cc(NC(=O)[C@H]3C[C@@H](c4ccccc4)C3)cn2)cc1 [Compound 6]
  activation at 10 µM: ≥ 50%

## CN(C(=O)Cn1cc(NC(=O)CCOc2ccccc2)cn1)c1ccc(Oc2ccc(C(F)(F)F)cc2)cc1 [Compound 42, N-(1-(2-(methyl(4-(4-(trifluoromethyl)phenoxy)phenyl)amino)-2-oxoethyl)-1H-pyrazol-4-yl)-3-phenoxypropanamide hydrochloride]
  activation at 10 µM: < 30%

## Cc1ccc(OCCN(C)C(=O)Cn2cc(NC(=O)C3COc4cccc(C)c4O3)cn2)cc1 (stereo not drawn) [Compound 125]
  activation at 10 µM: 30 to 50%

## Cc1ccc(O[C@H]2CCCN(C(=O)Cn3cc(NC(=O)C4CN(C(=O)OC(C)(C)C)c5ccccc5O4)cn3)C2)cc1 (stereo partly drawn) [Compound 121]
  activation at 10 µM: < 30%

## Cc1ccc(OCCN(C)C(=O)Cn2cc(NC(=O)[C@H]3CC[C@@H](Oc4ccccc4)CC3)cn2)cc1 [Compound 1, (cis)-N-(1-(2-(methyl(2-(p-tolyloxy)ethyl)amino)-2-oxoethyl)-1H-pyrazol-4-yl)-4-phenoxycyclohexanecarboxamide]
  activation at 10 µM: < 30%

## Cc1ccc(OC2CCC23CN(C(=O)Cn2cc(NC(=O)C4CC(Oc5c(F)cncc5C(C)C)C4)cn2)C3)cc1 (stereo not drawn) [Compound 163]
  activation at 10 µM: ≥ 50%

## Cc1ccc(OCCN(C)C(=O)Cn2cc(NC(=O)CCN3CCOc4ccccc43)cn2)cc1 [Compound 85]
  activation at 10 µM: < 30%

## Cc1ccccc1OCCC(=O)Nc1cnn(CC(=O)N(C)c2ccc(Oc3ccc(C(F)(F)F)cc3)cc2)c1 [Compound 53]
  activation at 10 µM: < 30%
